In patent US20110092529A1, “1,2,4-Triazole Derivatives and Their Use as Oxytocin Antagonists” (Pfizer Inc., priority 2005, published 2011) one finds Ki data, which are given here for three compounds.

For this assay, the target named is T1, oxytocin receptor (CHO-OTR/NFAT-β-Lactamase cells) (Homo sapiens, UniProt P30559).
T1 construct: expressed in transfected cells; host or cells: CHO (CHO-OTR line carrying an NFAT-β-lactamase reporter)
T1 sequence (P30559 1-389): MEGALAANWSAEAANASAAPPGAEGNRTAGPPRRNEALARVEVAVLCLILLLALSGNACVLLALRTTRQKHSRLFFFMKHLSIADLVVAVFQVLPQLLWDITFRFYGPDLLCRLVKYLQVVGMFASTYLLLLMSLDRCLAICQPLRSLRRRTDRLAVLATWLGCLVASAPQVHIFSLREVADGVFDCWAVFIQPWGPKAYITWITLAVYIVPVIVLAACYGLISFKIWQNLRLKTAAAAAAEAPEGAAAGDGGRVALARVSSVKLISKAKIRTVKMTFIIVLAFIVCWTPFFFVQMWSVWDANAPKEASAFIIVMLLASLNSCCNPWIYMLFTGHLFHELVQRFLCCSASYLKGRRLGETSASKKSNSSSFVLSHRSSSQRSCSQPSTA
The assay can be described thus: Oxytocin Receptor Beta-Lactamase Assay. Format: cell-based. The following applies: oxytocin stimulation 4 hours, read-out: oxytocin antagonist activity, expressed as a Ki value. On the procedure: A suitable assay for determining the oxytocin antagonist activity of a compound is detailed herein below.
Oxytocin Receptor Beta-Lactamase Assay
Cells used are CHO-OTR/NFAT-β-Lactamase. The NFAT-β-lactamase expression construct was transfected into the CHO-OTR cell line and clonal populations were isolated via fluorescence activated cell sorting (FACS). An appropriate clone was selected to develop the assay.
Recovery of cells—A vial of frozen cells is thawed rapidly in 37° C. water bath and the cell suspension transferred into a T225 flask with 50 ml of fresh growth medium and then incubated at 37° C., 5% CO2 in an incubator until the cells adhered to the flask Replace media with 50 ml of fresh growth media the following day.
Culturing cells—CHO—OTR—NFAT-βLactamase cells were grown in growth medium. Cells were harvested when they reached 80-90% confluence removing the medium and washing with pre-warmed PBS. PBS was then removed and Trypsin/EDTA added (3 mls for T225 cm^2 flask) before incubating for 5 min in 37° C./5% CO2 incubator. When cells were detached, pre-warmed growth media was added (7 mls for T225 cm^2 flask) and the cells re-suspended and mixed gently by pipetting to achieve single cell suspension. […]
Cells grown at 80-90% confluence were harvested and counted. […]
Preparation of 1 ml of 6× Loading Buffer with Enhanced Loading Protocol (this requires scale-up according to number of plates to be screened) • 12 μl of solution A (1 mM CCF4-AM in Dry DMSO) was added to 60 μl of solution B (100 mg/ml Pluronic-F127 in DMSO+0.1% Acetic Acid) and vortexed. • The resulting solution was added to 925 μl of solution C (24% w/w PEG400, 18% TR40 v/v in water). • 75 μl of solution D was added (200 mM probenecid in 200 mM NaOH). • 10 μl of 6× Loading Buffer was added to all wells and incubated for 1.5 hrs-2 hrs at room temperature in the dark. • The plates were read using an LJL Analyst, Excitation 405 nm, Emission 450 nm and 530 nm, gain optimal, lagtime 0.40 μs integration, 4 flashes, bottom reading.

SMILES strings stand for the structures.

For `COCc1nnc(N2CCC3(CC2)OCc2cc(F)ccc23)n1-c1ccc(OC)nc1` [Example 6, 5-fluoro-1′-[5-(methoxymethyl)-4-(6-methoxypyridin-3-yl)-4H-1,2,4-triazol-3-yl]-3H-spiro[2-benzofuran-1,4′-piperidine]], the Ki was 11.5 nM.

With `COCc1nnc(N2CCC3(CC2)OCc2ccccc23)n1-c1ccc(OC)nc1` [Example 17, 1′-[5-(methoxymethyl)-4-(6-methoxypyridin-3-yl)-4H-1,2,4-triazol-3-yl]-3H-spiro[2-benzofuran-1,4′-piperidine]], the Ki is 10.2 nM. The same measure for `COc1ccc(-n2c(C)nnc2N2CCC3(CC2)COc2ccccc23)cn1` [Example 1, 1′-[4-(6-methoxypyridin-3-yl)-5-methyl-4H-1,2,4-triazol-3-yl]spiro[1-benzofuran-3,4′-piperidine]]: 12.9 nM.
